# Measured values reported in US20250162989A1, “USP30 INHIBITORS AND USES THEREOF” (Vincere Biosciences, Inc., priority 2021, published 2025).
# Target: recombinant USP30 (amino acids 57-517 of the human sequence) (Homo sapiens (Human), UniProt Q70CQ3)
# Experiment: In vitro USP30 biochemical assay (Ubiquitin-Rhodamine substrate)
# Conditions: fluorescence
# Procedure: In vitro biochemical assay to establish the potency of compounds for USP30 inhibition: a 384-well plate assay using a fluorophore tagged substrate of USP30 was used for in vitro screening of compounds. Each compound was tested at
# 10 different concentrations (0.5 to 10,000 nM) in duplicate wells. […] Data were analyzed using Graph Pad Prism software with a four-parameter (floating slope) fit to log concentration data to determine IC50s.
# [1] = 1.5 nM recombinant USP30, 25 nM Ubiquitin-Rhodamine
# [2] = […] recombinant USP30, 25 nM Ubiquitin-Rhodamine
# Chain of recombinant USP30 (amino acids 57-517 of the human sequence) (Q70CQ3 57-517): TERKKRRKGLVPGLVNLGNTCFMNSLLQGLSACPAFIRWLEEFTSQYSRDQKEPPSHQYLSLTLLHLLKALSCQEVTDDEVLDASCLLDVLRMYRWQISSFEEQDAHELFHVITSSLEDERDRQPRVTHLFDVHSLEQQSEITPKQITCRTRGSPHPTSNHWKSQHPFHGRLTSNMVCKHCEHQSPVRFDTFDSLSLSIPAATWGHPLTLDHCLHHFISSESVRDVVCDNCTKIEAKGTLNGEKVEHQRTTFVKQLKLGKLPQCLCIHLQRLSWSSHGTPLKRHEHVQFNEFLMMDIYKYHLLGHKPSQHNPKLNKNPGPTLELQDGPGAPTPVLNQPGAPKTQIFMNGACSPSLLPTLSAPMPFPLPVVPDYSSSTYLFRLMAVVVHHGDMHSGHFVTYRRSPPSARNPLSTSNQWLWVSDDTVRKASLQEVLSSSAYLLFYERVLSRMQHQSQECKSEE
SMILES,IC50 [1],IC50 [2]
CC(C)(C)NS(=O)(=O)c1ccc(NC(=O)[C@H](CC2CCOCC2)NC(=O)c2ccc(F)cc2)cn1 [Compound I-4],–,< 0.05 µM
O=C(N[C@@H](CC1CCOCC1)C(=O)Nc1ccc(S(=O)(=O)NC2COC2)nc1)c1ccc(F)cc1 [Compound I-5],0.05 to 1 µM,–
CC(C)(CCO)NS(=O)(=O)c1ccc(NC(=O)[C@H](CC2CCOCC2)NC(=O)c2ccc(F)cc2)cc1 [Compound I-6],–,< 0.05 µM
COCCC(C)(C)NS(=O)(=O)c1ccc(NC(=O)[C@H](CC2CCOCC2)NC(=O)c2ccc(F)cc2)cc1 [Compound I-7],0.05 to 1 µM,–
"CC(C)(C)NS(=O)(=O)c1cccc2c(NC(=O)[C@H](CC3CCOCC3)NC(=O)c3ccc(F)cc3)cccc12 [Compound I-8, (S)—N-(1-((5-(N-(tert-butyl)sulfamoyl)naphthalen-1-yl)amino)-1-oxo-3-(tetrahydro-2H-pyran-4-yl)propan-2-yl)-4-fluorobenzamide]",–,< 0.05 µM
CCNS(=O)(=O)c1cccc2c(NC(=O)[C@H](CC3CCOCC3)NC(=O)c3ccc(F)cc3)cccc12 [Compound I-9],0.05 to 1 µM,–
CC(C)C[C@@H](NC(=O)c1ccc(F)cc1)C(=O)Nc1ccc(S(=O)(=O)NC(C)(C)C)cc1 [Compound I-12],–,> 10 µM
CC(C)C[C@H](NC(=O)c1ccc(F)cc1)C(=O)Nc1ccc(S(=O)(=O)NC(C)(C)C)nc1 [Compound I-16],–,< 0.05 µM
CC(C)CC[C@H](NC(=O)c1ccc(F)cc1)C(=O)Nc1ccc(S(=O)(=O)NC2COC2)cc1 [Compound I-24],0.05 to 1 µM,–
CC(C)(C)C[C@H](NC(=O)c1ccc(F)cc1)C(=O)Nc1ccc(S(=O)(=O)NC(C)(C)C)cc1 [Compound I-25],0.05 to 1 µM,–
COCC[C@H](NC(=O)c1ccc(F)cc1)C(=O)Nc1ccc(S(=O)(=O)NC(C)(C)CO)cc1 [Compound I-26],0.05 to 1 µM,–
COCC[C@H](NC(=O)c1ccc(F)cc1)C(=O)Nc1ccc(S(=O)(=O)NC(C)(C)CN2CCOCC2)cc1 [Compound I-27],1 to 10 µM,–
COCC[C@H](NC(=O)c1ccc(F)cc1)C(=O)Nc1ccc(S(=O)(=O)NC2COC2)cc1 [Compound I-28],1 to 10 µM,–
CC(C)(CO)NS(=O)(=O)c1ccc(NC(=O)[C@H](CCO)NC(=O)c2ccc(F)cc2)cc1 [Compound I-29],1 to 10 µM,–
COC[C@H](NC(=O)c1ccc(F)cc1)C(=O)Nc1ccc(S(=O)(=O)NC(C)(C)CO)cc1 [Compound I-32],1 to 10 µM,–
COC[C@H](NC(=O)c1ccc(F)cc1)C(=O)Nc1ccc(S(=O)(=O)NC(C)(C)CN2CCOCC2)cc1 [Compound I-33],1 to 10 µM,–
COC[C@H](NC(=O)c1ccc(F)cc1)C(=O)Nc1ccc(S(=O)(=O)NC2COC2)cc1 [Compound I-34],1 to 10 µM,–
CC(C)(CO)NS(=O)(=O)c1ccc(NC(=O)[C@H](CO)NC(=O)c2ccc(F)cc2)cc1 [Compound I-35],1 to 10 µM,–
"CC(C)(CN1CCOCC1)NS(=O)(=O)c1ccc(NC(=O)[C@H](CO)NC(=O)c2ccc(F)cc2)cc1 [Compound I-36, (S)-4-fluoro-N-(3-hydroxy-1-((4-(N-(2-methyl-1-morpholinopropan-2-yl)sulfamoyl)phenyl)amino)-1-oxopropan-2-yl)benzamide]",–,> 10 µM
"CC(C)(C)NS(=O)(=O)c1ccc(NC(=O)[C@H](CC2COC2)NC(=O)c2ccc(F)cc2)cc1 [Compound I-38, (S)—N-(1-((4-(N-(tert-butyl)sulfamoyl)phenyl)amino)-3-(oxetan-3-yl)-1-oxopropan-2-yl)-4-fluorobenzamide]",0.05 to 1 µM,–
"CC(C)(C)NS(=O)(=O)c1ccc(NC(=O)[C@H](CC2CCNCC2)NC(=O)c2ccc(F)cc2)cc1 [Compound I-40, (S)—N-(1-((4-(N-(tert-butyl)sulfamoyl)phenyl)amino)-1-oxo-3-(piperidin-4-yl)propan-2-yl)-4-fluorobenzamide]",0.05 to 1 µM,–

# Results, then the molecule that gave them:
IC50 [1],IC50 [2],SMILES
1 to 10 µM,–,"CC(C)(C)NS(=O)(=O)c1ccc(-c2nc([C@H](Cc3ccccc3)NC(=O)c3ccc(F)cc3)n[nH]2)cc1 (stereo in doubt) [Compound I-55, N-(1-(5-(4-(N-(tert-butyl)sulfamoyl)phenyl)-1H-1,2,4-triazol-3-yl)-2-phenylethyl)-4-fluorobenzamide]"
1 to 10 µM,–,"CC(C)(C)NS(=O)(=O)c1ccc(NC(=O)[C@H](Cc2ccccc2)c2nnc(-c3ccc(F)cc3)o2)cc1 (stereo in doubt) [Compound I-56, N-(4-(N-(tert-butyl)sulfamoyl)phenyl)-2-(5-(4-fluorophenyl)-1,3,4-oxadiazol-2-yl)-3-phenylpropanamide]"
–,< 0.05 µM,"COc1cc(NC(=O)[C@H](CC2CCOCC2)NC(=O)c2ccc(F)cc2)ccc1S(=O)(=O)NC(C)(C)C [Compound I-2, (S)—N-(1-((4-(N-(tert-butyl)sulfamoyl)-3-methoxyphenyl)amino)-1-oxo-3-(tetrahydro-2H-pyran-4-yl)propan-2-yl)-4-fluorobenzamide]"
1 to 10 µM,–,O=C(N[C@@H](CC1CCOCC1)C(=O)Nc1cccc2c(S(=O)(=O)NC3COC3)cccc12)c1ccc(F)cc1 [Compound I-10]
0.05 to 1 µM,–,COc1cc(NC(=O)[C@H](CC(C)C)NC(=O)c2ccc(F)cc2)ccc1S(=O)(=O)NC(C)(C)C [Compound I-13]
0.05 to 1 µM,–,COc1cc(NC(=O)[C@H](CC(C)C)NC(=O)c2ccc(F)cc2)ccc1S(=O)(=O)NC(C)(C)CO [Compound I-14]
0.05 to 1 µM,–,COc1cc(NC(=O)[C@H](CC(C)C)NC(=O)c2ccc(F)cc2)cnc1S(=O)(=O)NC(C)(C)C [Compound I-15]
0.05 to 1 µM,–,CC(C)C[C@H](NC(=O)c1ccc(F)cc1)C(=O)Nc1ccc(S(=O)(=O)NC(C)(C)CO)nc1 [Compound I-17]
0.05 to 1 µM,–,COCCC(C)(C)NS(=O)(=O)c1ccc(NC(=O)[C@H](CC(C)C)NC(=O)c2ccc(F)cc2)cc1 [Compound I-18]
1 to 10 µM,–,COCCC(C)(C)NS(=O)(=O)c1ccc(NC(=O)[C@@H](CC(C)C)NC(=O)c2ccc(F)cc2)cc1 [Compound I-19]
–,> 10 µM,"CC(C)C[C@@H](NC(=O)c1ccc(F)cc1)C(=O)Nc1ccc(S(=O)(=O)NC(C)(C)CCO)cc1 [Compound I-21, (R)-4-fluoro-N-(1-((4-(N-(4-hydroxy-2-methylbutan-2-yl)sulfamoyl)phenyl)amino)-4-methyl-1-oxopentan-2-yl)benzamide]"
0.05 to 1 µM,–,CC(C)C[C@H](NC(=O)c1ccc(F)cc1)C(=O)Nc1ccc(S(=O)(=O)NC2COC2)cc1 [Compound I-22]
1 to 10 µM,–,CC(C)(CN1CCOCC1)NS(=O)(=O)c1ccc(NC(=O)[C@H](CCO)NC(=O)c2ccc(F)cc2)cc1 [Compound I-30]
1 to 10 µM,–,O=C(N[C@@H](CCO)C(=O)Nc1ccc(S(=O)(=O)NC2COC2)cc1)c1ccc(F)cc1 [Compound I-31]
–,> 10 µM,"CC(C)(C)NS(=O)(=O)c1ccc(NC(=O)[C@@H](CC2COC2)NC(=O)c2ccc(F)cc2)cc1 [Compound I-39, (R)—N-(1-((4-(N-(tert-butyl)sulfamoyl)phenyl)amino)-3-(oxetan-3-yl)-1-oxopropan-2-yl)-4-fluorobenzamide]"
0.05 to 1 µM,–,"CC(C)(C)NS(=O)(=O)c1ccc(NC(=O)[C@H](CC2CCN(C(=O)OCc3ccccc3)CC2)NC(=O)c2ccc(F)cc2)cc1 [Compound I-43, benzyl (S)-4-(3-((4-(N-(tert-butyl)sulfamoyl)phenyl)amino)-2-(4-fluorobenzamido)-3-oxopropyl)piperidine-1-carboxylate]"
0.05 to 1 µM,–,CN1CCC(C[C@H](NC(=O)c2ccc(F)cc2)C(=O)Nc2ccc(S(=O)(=O)NC(C)(C)CO)cc2)CC1 [Compound I-44]
